The record followed here is patent publication US20110039762A1, “TARGETED ANTIMICROBIAL MOIETIES” (C3 JIAN, INC., priority 2009, published 2011).

For one test, the system named is E. faecalis. Description: Kill or inhibit growth/proliferation; morphology, biofilm and growth disruption (Tables 5, 6). Note: test concentration or dose not given here. In kind it is cell-based, Enterococcus faecalis. The arrangement: key: A: Peptide aggregates; B: Less hyphal formation; Clumps; Diffuse clumps and small polyps; F: Diffuse growth; H: Thin; I: Growth inhibition; Microcolony formation; Rippled; Small polyps; Thick; W: Halo formation on top, microlonies on bottom.

The subject of the next test is microorganisms. The test is described as follows: Peptides having multiple activities (targeting/binding, antimicrobial, growth or phenotype altering). The text has this: In certain embodiments, peptides described herein can have multiple activities. Thus for example, a peptide can have both binding/targeting activity and antimicrobial activity. Such peptides can be used, e.g., in a chimeric construct, for any or all of these properties. Thus, for example, a peptide designated “B” in Table 8 can be used as a targeting peptide. If it is also designated G or M it can also be used for antimicrobial activity.

The subject of test [1] is microorganisms (e.g., bacteria, yeasts, fungi). Description: Targeting peptide binding to target microorganisms (Table 3). To be noted: preferably 1x PBS; for Target(s) (microorganisms bound by the targeting peptide): peptide binding in aqueous buffers varied by peptide solubility.
The test system of another test is S. epidermidis. Description: Kill or inhibit growth/proliferation; morphology, biofilm and growth disruption (Tables 5, 6). Note: test concentration or dose not given here. The format is cell-based, Staphylococcus epidermidis. On the set-up: key: A: Peptide aggregates; B: Less hyphal formation; Clumps; Diffuse clumps and small polyps; F: Diffuse growth; H: Thin; I: Growth inhibition; Microcolony formation; Rippled; Small polyps; Thick; W: Halo formation on top, microlonies on bottom.

A further test deals with MRSA. Described as above. The format is cell-based, Methicillin-resistant Staphylococcus aureus. On the set-up: key: A: Peptide aggregates; B: Less hyphal formation; Clumps; Diffuse clumps and small polyps; F: Diffuse growth; H: Thin; I: Growth inhibition; Microcolony formation; Rippled; Small polyps; Thick; W: Halo formation on top, microlonies on bottom.
For the next test, the system named is S. pneumoniae. Described as above. In kind it is cell-based, Streptococcus pneumoniae. The arrangement: key: A: Peptide aggregates; B: Less hyphal formation; Clumps; Diffuse clumps and small polyps; F: Diffuse growth; H: Thin; I: Growth inhibition; Microcolony formation; Rippled; Small polyps; Thick; W: Halo formation on top, microlonies on bottom.
Where [2] appears, read: microorganism the targeting peptide binds, binding in aqueous buffers varied by peptide solubility.
The mark [3] stands for this setting: microorganism(s) the targeting peptide binds, binding in aqueous buffers depending on peptide solubility.
Where [4] appears, read: microorganism(s) the targeting peptide binds, peptide binding conducted in aqueous buffers varied by peptide solubility.

Entries after “also recorded” stand apart in the source; their conditions may differ.
Throughout, for Organism, effect (morphology, biofilm and growth disruption): test concentration or dose not given here.
Throughout, for Organism, effect: test concentration or dose not given here.

Regarding DEIKVSDEEIEKFIKENNL [PF-597], in the test with E. faecalis, the “Organism, effect” value is “E. faecalis (A)”. Also, in the test with microorganisms, the Activities result is listed as “G B”. Further, the “Target(s) (microorganisms bound by the targeting peptide)” value in test [1] is given as “P. mirabilis”.
In the case of “PF-024: peptide having multiple activities (chain 1 DLRKAK; chain 2 DLRKAK; Peptide with targeting and/or antimicrobial activity)”, the “Organism, effect” value is “S. epidermidis (D)” in the test on S. epidermidis and “MRSA (M)” with MRSA. Further, the Activities entry in the test with microorganisms was “G B”. Further, the “Target(s)” value in test [1] (setting [2]) is “M. luteus and C. albicans and MRSA and E. faecalis and C. jeikeium”.
As to “PF-027: peptide having multiple activities (chain 1 HNARKYLEFISQKIDGDKLTKEDSL; chain 2 HNARKYLEFISQKIDGDKLTKEDSL; Peptide with targeting and/or antimicrobial activity)”, the “Organism, effect” value in the test with S. epidermidis is given as “S. epidermidis (D)”; in the test on MRSA, “MRSA (M)”. The Activities entry in the test on microorganisms is “G B”. For the same substance, in test [1] (setting [2]), the “Target(s)” value is “M. luteus and MRSA and E. faecalis and C. jejuni”.
Consider “PF-041: peptide having multiple activities (chain 1 ELLVILPGFI; chain 2 ELLVILPGFI; Peptide with targeting and/or antimicrobial activity)”, for which the “Organism, effect” value with S. epidermidis was “S. epidermidis (R)”; in the test with MRSA it was “MRSA (M)”. Further, the Activities result in the test with microorganisms is listed as “G B”. The “Target(s)” value in test [1] (setting [2]) is “MRSA”.
As to “PF-064: peptide having multiple activities (chain 1 DYYGKE; chain 2 DYYGKE; Peptide with targeting and/or antimicrobial activity)”, the results for the “Organism, effect” value in the test with S. epidermidis and with MRSA were “S. epidermidis (D)” and “MRSA (M)”, respectively. In addition, the Activities result in the test on microorganisms is reported as “G B”. For the same substance, in test [1] (setting [2]), the “Target(s)” value was “E. coli”.
With “PF-074: peptide having multiple activities (RDIHPIYFMTKD; Peptide with targeting and/or antimicrobial activity)”, the “Organism, effect” value in the test with S. epidermidis is reported as “S. epidermidis (D)”; in the test with MRSA, “MRSA (M)”. In the test on microorganisms, the Activities result was “G B”. Further, the “Target(s)” value in test [1] (setting [3]) was “S. epidermidis and M. luteus and MRSA”.
“PF-273: peptide having multiple activities (LVGALLIFVALIYMVLKGNADKN; Peptide with targeting and/or antimicrobial activity)”: the “Organism, effect” value in the test on S. epidermidis was “S. epidermidis (C)”. Further, in the test with microorganisms, the Activities entry is reported as “G B”. In addition, the “Target(s)” value in test [1] (setting [3]) is “S. epidermidis; also recorded: M. luteus; also recorded: P. aeruginosa; also recorded: A. baumannii”.
For “PF-294: peptide having multiple activities (DFLVNFLWFKGELNWGKKRYK; Peptide with targeting and/or antimicrobial activity)”, in that order: “S. epidermidis (C)”, “G B” and “S. epidermidis; also recorded: C. difficile”.
Consider “PF-313: peptide having multiple activities (YITSHKNARAIIKKFERDEILEEVITHYLNRK; Peptide with targeting and/or antimicrobial activity)”, for which, in the test on S. epidermidis, the “Organism, effect” value is recorded as “S. epidermidis (C)”. For the same substance, in the test with microorganisms, the Activities entry was “G B”. The “Target(s)” value in test [1] (setting [3]) is recorded as “S. epidermidis; also recorded: C. difficile”.
As to “PF-373: peptide having multiple activities (chain 1 HFYLLFER; chain 2 HFYLLFER; Peptide with targeting and/or antimicrobial activity)”, the “Organism, effect” value is listed as “S. epidermidis (M)” in the test with S. epidermidis and “MRSA (M)” in the test with MRSA. Also, the Activities entry in the test on microorganisms is listed as “G B”. In test [1] (setting [3]), the “Target(s)” value was “S. epidermidis and E. coli and P. aeruginosa and C. albicans and MRSA and E. faecalis and C. jejuni”.
“PF-378: peptide having multiple activities (chain 1 ESAKSNLNFLMQEEWALFLLL; chain 2 ESAKSNLNFLMQEEWALFLLL; Peptide with targeting and/or antimicrobial activity)”: the “Organism, effect” value in the test with S. epidermidis is recorded as “S. epidermidis (M)”; with MRSA, “MRSA (M)”. In addition, in the test with microorganisms, the Activities entry is recorded as “G B”. The “Target(s)” value in test [1] (setting [3]) was “B. subtilis; also recorded: B. fragilis; also recorded: E. coli; also recorded: P. aeruginosa; also recorded: C. jeikeium”.
With “PF-397: peptide having multiple activities (VEDLMEDLNA; Peptide with targeting and/or antimicrobial activity)”, in the test on S. epidermidis, the “Organism, effect” value is “S. epidermidis (C)”. In the test with microorganisms, the Activities entry is recorded as “G B”. In test [1] (setting [4]), the “Target(s)” value is “S. epidermidis and MRSA and S. pneumoniae and E. faecalis and C. jejuni”.
In the case of “PF-404: peptide having multiple activities (VLYFQATVV; Peptide with targeting and/or antimicrobial activity)”, the “Organism, effect” value is “S. epidermidis (M)” in the test with S. epidermidis and “MRSA (M)” in the test with MRSA. In addition, the Activities result in the test on microorganisms is recorded as “G B”. Besides, the “Target(s)” value in test [1] (setting [4]) is “S. epidermidis; also recorded: E. coli; also recorded: P. aeruginosa; also recorded: E. faecalis; also recorded: C. jeikeium; also recorded: C. jejuni”.
Turning to “PF-406: peptide having multiple activities (YLEMNADYLSNMDIFDELWEKYLENNK; Peptide with targeting and/or antimicrobial activity)”, the “Organism, effect” value is reported as “S. epidermidis (C)” with S. epidermidis and “MRSA (M)” in the test on MRSA. Moreover, in the test with microorganisms, the Activities entry is reported as “G B”. Further, in test [1] (setting [4]), the “Target(s)” value is reported as “E. coli; also recorded: C. jejuni”.
Consider “PF-408: peptide having multiple activities (YCVPLGNMGNMNNKIW; Peptide with targeting and/or antimicrobial activity)”, for which the “Organism, effect” value in the test with S. epidermidis is listed as “S. epidermidis (M)”; with MRSA, “MRSA (M)”. Moreover, the Activities result in the test on microorganisms is listed as “G B”. Further, the “Target(s)” value in test [1] (setting [4]) is “S. epidermidis and E. coli and P. aeruginosa and MRSA and E. faecalis and C. jeikeium and C. jejuni”.
On to “PF-417: peptide having multiple activities (DSYFRS; Peptide with targeting and/or antimicrobial activity)”, for which the results for the “Organism, effect” value in the test with S. epidermidis, with S. pneumoniae and in the test with MRSA were “S. epidermidis (M)”, “S. pneumoniae (M)” and “MRSA (M)”, respectively. Besides, in the test on microorganisms, the Activities result is “G B”. For the same substance, the “Target(s)” value in test [1] (setting [4]) is reported as “S. epidermidis; also recorded: C. jeikeium; also recorded: C. jejuni”.
Regarding “PF-430: peptide having multiple activities (AVVCGYLAYTATS; Peptide with targeting and/or antimicrobial activity)”, the “Organism, effect” value in the test on S. epidermidis is “S. epidermidis (M)”; in the test with S. pneumoniae it was “S. pneumoniae (M)”; with MRSA it was “MRSA (M)”. Further, the Activities entry in the test with microorganisms was “G B”. For the same substance, in test [1] (setting [4]), the “Target(s)” value is on record as “S. epidermidis; also recorded: M. luteus; also recorded: E. coli; also recorded: S. pneumoniae; also recorded: E. faecalis; also recorded: C. jeikeium; also recorded: C. jejuni”.
For “PF-582 (NLKTIEKECPFCNNKMDIKLKD; Peptide with targeting and/or antimicrobial activity)”, the “Organism, effect” value in the test on E. faecalis is “E. faecalis (A)”.
For the substance “PF-649 (chain 1 CPRYPFVDVGPAGPWRARWRVGS; chain 2 CPRYPFVDVGPAGPWRARWRVGS; Peptide with targeting and/or antimicrobial activity)”, the “Organism, effect (morphology, biofilm and growth disruption)” value in the test with E. faecalis is given as “E. faecalis (R)”. The “Target(s) (microorganisms bound by the targeting peptide)” value in test [1] is “Mycobacteria spp”.
On to “PF-683 (chain 1 LWPVA; chain 2 LWPVA; Peptide with targeting and/or antimicrobial activity)”, for which the “Organism, effect (morphology, biofilm and growth disruption)” value is “S. epidermidis (R)” with S. epidermidis, “S. pneumoniae (H)” with S. pneumoniae and “MRSA (R)” in the test on MRSA. The “Target(s) (microorganisms bound by the targeting peptide)” value in test [1] was “Mycobacteria spp”.
Consider “PF-760: peptide having multiple activities (DHITLDDYEIHDGFNFELYYG; Peptide with targeting and/or antimicrobial activity)”, for which the “Organism, effect (morphology, biofilm and growth disruption)” value is “S. epidermidis (M)” with S. epidermidis, “S. pneumoniae (C)” with S. pneumoniae and “MRSA (M)” with MRSA. Moreover, the Activities entry in the test on microorganisms is on record as “G B”. Further, the “Target(s) (microorganisms bound by the targeting peptide)” value in test [1] is reported as “S. epidermidis; also recorded: M. luteus”.
